The structures appear in SMILES notation.

For one assay, the target named is TIPARP (PARP7) (Homo sapiens (Human), UniProt Q7Z3E1). In words: Enzymatic assay for inhibition of PARP7: displacement of biotinylated Probe A (TR-FRET). The format is binding. The following applies: TR-FRET displacement of Probe A from TIPARP. As to the method: 20 nL of a dose response curve of each test compound was spotted in black 384-well polystyrene proxiplates (Perkin Elmer) using a Mosquito (TTP Labtech). […] Reactions were incubated at 25° C. for an additional 30 min, then read on an Envision plate reader equipped with a LANCE/DELFIA top mirror (Perkin Elmer) using excitation of 320 nm and emission of 615 nm and […] with a 90 μs delay. The ratio of the 665/615 nm emission were calculated for each well to determine the amount of complex of TIPARP and Probe A in each well. […] The Hill Coefficient is normally allowed to float but may also be fixed at 1 in a 3-parameter fit. Y is the % inhibition and X is the compound concentration.
TIPARP (PARP7), sequence (Q7Z3E1 whole entry): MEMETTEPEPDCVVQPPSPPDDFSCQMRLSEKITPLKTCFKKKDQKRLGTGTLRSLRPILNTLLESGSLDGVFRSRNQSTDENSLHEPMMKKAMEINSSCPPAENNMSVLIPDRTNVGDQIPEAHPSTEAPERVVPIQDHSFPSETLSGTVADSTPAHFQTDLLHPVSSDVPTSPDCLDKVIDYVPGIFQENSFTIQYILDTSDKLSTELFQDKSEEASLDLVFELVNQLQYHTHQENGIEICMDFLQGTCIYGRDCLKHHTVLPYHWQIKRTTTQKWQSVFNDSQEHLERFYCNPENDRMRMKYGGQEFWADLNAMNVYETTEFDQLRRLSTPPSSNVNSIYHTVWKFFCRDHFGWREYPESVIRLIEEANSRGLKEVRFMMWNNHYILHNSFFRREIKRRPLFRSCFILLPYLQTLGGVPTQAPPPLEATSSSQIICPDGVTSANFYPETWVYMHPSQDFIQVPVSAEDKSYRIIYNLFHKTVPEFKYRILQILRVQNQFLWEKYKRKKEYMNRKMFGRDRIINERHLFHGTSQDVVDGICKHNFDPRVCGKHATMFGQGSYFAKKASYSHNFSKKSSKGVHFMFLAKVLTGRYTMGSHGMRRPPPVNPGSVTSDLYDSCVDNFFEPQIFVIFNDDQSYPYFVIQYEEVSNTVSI

The test system of assay [1] is NCI-H1373 lung cancer cells. In words: Inhibition of cancer cell growth in NCI-H1373 cells (FIG. 2). The format is cell-based, human.
The test system of the next assay is 4T1-luc2-1A4 cells. Kind of assay: Inhibition of tumor growth, 4T1 murine syngeneic model, subcutaneous dosing. The format is in vivo. Particulars: 4T1 orthotopic syngeneic, BALB/c mice; Compound 98 500 mg/kg S.C. QD, Compound 93A 100 mg/kg S.C. BID, 21 days. The text has this:
(§1) Example G: Inhibition of Tumor Growth by Treatment with PARP7 Inhibitors
For the 4T1 study female BALB/c mice were inoculated orthotopically in the mammary fat pad with 4T1-luc2-1A4 cells for tumor development. Eight days after tumor inoculation, 45 mice with tumor size ranging from 63-88 mm^3 (average tumor size 67 mm^3) were selected and assigned into 3 groups using stratified randomization with 15 mice in each group based upon their tumor volumes. The treatments were started from the next day post randomization (defined randomization day as D0) and were treated with vehicle (0.5% methylcellulose+0.2% Tween 80), Compound 98 (500 mg/kg S.C. QD*21 days), Compound 93A (100 mg/kg S.C. BID*21 days) respectively. The tumor sizes were measured three times per week during the treatment. The entire study was terminated on D20.
(§2) Mean tumor volume and SEM for both studies are plotted. Statistical significance, calculated using two-tailed unpaired t-tests in which each treatment group was compared to vehicle control, is indicated by an asterisk. Statistics were performed on groups with less than 20% animal loss (D21 for CT26, D17 for 4T1).

Assay [2] relates to RAW264.7 mouse macrophages. Kind of assay: Induction of interferon-beta levels in RAW264.7 macrophages in the presence of STING agonist DMXAA (FIG. 3). The format is cell-based.
Another assay concerns CT26 cells. Kind of assay: Inhibition of tumor growth, CT26 murine syngeneic model, subcutaneous dosing. The format is in vivo. Particulars: BALB/c mice, Compound 98 500 mg/kg S.C. QD, Compound 93A 100 mg/kg S.C. BID, 21 days.
Text: as §1
For the CT26 study BALB/c mice were inoculated subcutaneously at the right flank with CT26 cells for tumor development. Four days after tumor inoculation, 36 mice with tumor size ranging from 40-55 mm^3 (average tumor size 47 mm^3) were selected and assigned into 3 groups using stratified randomization with 12 mice in each group based upon their tumor volumes. The treatments were started from the next day post randomization (defined randomization day as day 0) and were treated with vehicle (0.5% methylcellulose+0.2% Tween 80), Compound 98 (500 mg/kg S.C. QD*21 days), Compound 93A (100 mg/kg S.C. BID*21 days) respectively. The tumor sizes were measured three times per week during the treatment. The entire study was terminated on day 21.
as §2

Assay [3] deals with CT26 mouse colon cancer cells. Kind of assay: Induction of interferon-beta levels in CT26 cells in the presence of STING agonist DMXAA (FIG. 3). Type of assay: cell-based.
In a further assay the target is PARP7 (Homo sapiens (Human), UniProt Q7Z3E1). Kind of assay: PARP7 inhibition potency (Table A-1). Type of assay: binding. Particulars: comparison of separated isomers; see Table A-1.
PARP7, sequence (Q7Z3E1 whole entry): as above

Broadly, the IC50 is the concentration at which inhibition is half-maximal. High values mean lower potency, low ones higher potency. For `N#Cc1ccc(N2CCN(C(=O)CCO[C@H]3Cc4ccccc4[C@@H]3Nc3cn[nH]c(=O)c3C(F)(F)F)CC2)nc1` [Example 537A], on TIPARP (PARP7), the IC50 was ≥ 1 µM. In the case of `N#Cc1ccc(N2CCN(C(=O)c3cccc(OCCOc4cccc5c4CN(c4cn[nH]c(=O)c4C(F)(F)F)C5)c3)CC2)nc1` [Example 39, 6-[4-([3-[2-([2-[6-Oxo-5-(trifluoromethyl)-1,6-dihydropyridazin-4-yl]-2,3-dihydro-1H-isoindol-4-yl]oxy)ethoxy]phenyl]carbonyl)piperazin-1-yl]pyridine-3-carbonitrile], in assay [1], the “growth of NCI-H1373 lung cancer cells” value is given as “dose-dependent decrease in growth”. Take `N#Cc1ccc(N2CCN(C(=O)c3cncc(OC[C@H]4c5ccccc5CN4c4cn[nH]c(=O)c4C(F)(F)F)n3)CC2)nc1` [Example 72B, 6-[4-[(6-[[(1R)-2-[6-oxo-5-(trifluoromethyl)-1,6-dihydropyridazin-4-yl]-2,3-dihydro-1H-isoindol-1-yl]methoxy]pyrazin-2-yl)carbonyl]piperazin-1-yl]pyridine-3-carbonitrile]: the IC50 at TIPARP (PARP7) was < 0.1 µM. As for `COC[C@@H](COc1cn[nH]c(=O)c1C(F)(F)F)OCCC(=O)N1CCN(c2ncc(Cl)cn2)CC1` [Example 560A, 5-[(2S)-2-[3-[4-(5-chloropyrimidin-2-yl)piperazin-1-yl]-3-oxopropoxy]-3-methoxypropoxy]-4-(trifluoromethyl)-2,3-dihydropyridazin-3-one], the IC50 at TIPARP (PARP7) was < 0.1 µM. On the same count and under the same terms, in the case of `O=C(CCOCCOc1cn[nH]c(=O)c1Cl)N1CCN(c2ccc(Cl)cn2)CC1` [Example 523, 4-Chloro-5-(2-[3-[4-(5-chloropyridin-2-yl)piperazin-1-yl]-3-oxopropoxy]ethoxy)-2,3-dihydropyridazin-3-one] it was < 0.1 µM. Still for that read-out and setting: the figure for `N#Cc1ccc(N2CCN(C(=O)CNCC[C@H]3c4ccccc4CN3c3cn[nH]c(=O)c3C(F)(F)F)CC2)nc1` [Example 144A, 6-[4-[2-([2-[(1S)-2-[6-oxo-5-(trifluoromethyl)-1,6-dihydropyridazin-4-yl]-2,3-dihydro-1H-isoindol-1-yl]ethyl]amino)acetyl]piperazin-1-yl]pyridine-3-carbonitrile] is < 0.1 µM; for `N#Cc1ccc(N2CCN(C(=O)c3ccnc(OC[C@H]4c5ccccc5CN4c4cn[nH]c(=O)c4C(F)(F)F)c3)CC2)nc1` [Example 36A, 6-[4-[(2-[[(1R)-2-[6-oxo-5-(trifluoromethyl)-1,6-dihydropyridazin-4-yl]-2,3-dihydro-1H-isoindol-1-yl]methoxy]pyridin-4-yl)carbonyl]piperazin-1-yl]pyridine-3-carbonitrile] it is ≥ 1 µM. Same read-out and setting: the figure for `O=C(COC[C@@H]1CCCN1c1cn[nH]c(=O)c1C(F)(F)F)N[C@H]1CC[C@H](Nc2ccccn2)CC1` [Example 80A, 2-[[(2S)-1-[6-oxo-5-(trifluoromethyl)-1,6-dihydropyridazin-4-yl]pyrrolidin-2-yl]methoxy]-N-[(1r,4r)-4-[(pyridin-2-yl)amino]cyclohexyl]acetamide] is 0.1 to 1 µM; for `CC(C)(COCCC(=O)N1CCN(c2ccc(C#N)cn2)CC1)Nc1cn[nH]c(=O)c1C(F)(F)F` [Example 519, 6-[4-[3-(2-Methyl-2-[[6-oxo-5-(trifluoromethyl)-1,6-dihydropyridazin-4-yl]amino]propoxy)propanoyl]piperazin-1-yl]pyridine-3-carbonitrile] it is < 0.1 µM; for `N#Cc1ccc(N2CCN(C(=O)c3ccc(OC[C@H]4c5ccccc5CN4c4cn[nH]c(=O)c4C(F)(F)F)cc3)CC2)nc1` [Example 35B, 6-[4-[(4-[[(1R)-2-[6-oxo-5-(trifluoromethyl)-1,6-dihydropyridazin-4-yl]-2,3-dihydro-1H-isoindol-1-yl]methoxy]phenyl)carbonyl]piperazin-1-yl]pyridine-3-carbonitrile] it is 0.1 to 1 µM.

`O=C(CCOCCNc1cn[nH]c(=O)c1C(F)(F)F)N1CCN(c2ccc(Cl)cn2)CC1` [Example 506, 5-[(2-[3-[4-(5-Chloropyridin-2-yl)piperazin-1-yl]-3-oxopropoxy]ethyl)amino]-4-(trifluoromethyl)-2,3-dihydropyridazin-3-one]: the IC50 on TIPARP (PARP7) is < 0.1 µM. Take `N#Cc1ccc(N2CCN(C(=O)CCOC[C@@H]3CCCN3c3cn[nH]c(=O)c3C(F)(F)F)CC2)nc1` [Example 98, 6-[4-(3-[[(2S)-1-[6-Oxo-5-(trifluoromethyl)-1,6-dihydropyridazin-4-yl]pyrrolidin-2-yl]methoxy]propanoyl)piperazin-1-yl]pyridine-3-carbonitrile]: the tumor growth result in the assay on 4T1-luc2-1A4 cells and with CT26 cells was “significantly reduce tumor growth” each time. Also, the “interferon-beta (IFN-β) levels” value in assay [2] and in assay [3] was “induction of interferon-beta (IFN-β) levels” in each case. The “growth of NCI-H1373 lung cancer cells” value in assay [1] is on record as “dose-dependent decrease in growth”. For the compound `N#Cc1ccc(N2CCN(C(=O)C[C@H]3CC[C@@H]([C@@H]4CCCN4c4cn[nH]c(=O)c4C(F)(F)F)O3)CC2)nc1` [Example 141B, 6-(4-[2-[(2R,5S)-5-[(2S)-1-[6-oxo-5-(trifluoromethyl)-1,6-dihydropyridazin-4-yl]pyrrolidin-2-yl]oxolan-2-yl]acetyl]piperazin-1-yl)pyridine-3-carbonitrile], the “relative potency of the enantiomers” value at PARP7 is “more potent enantiomer”.

Turning to `N#Cc1ccc(N2CCC3C2CCN3C(=O)CCOC[C@@H]2CCCN2c2cn[nH]c(=O)c2C(F)(F)F)nc1` (stereo partly drawn) [Example 110, 6-[4-(3-[[(2S)-1-[6-oxo-5-(trifluoromethyl)-1,6-dihydropyridazin-4-yl]pyrrolidin-2-yl]methoxy]propanoyl)-octahydropyrrolo[3,2-b]pyrrol-1-yl]pyridine-3-carbonitrile], the IC50 at TIPARP (PARP7) was < 0.1 µM. For the compound `N#Cc1ccc(N2CCN(C(=O)CCOC[C@@H]3c4ccccc4CN3c3cn[nH]c(=O)c3C(F)(F)F)CC2)nc1` [Example 93A, 6-[4-(3-[[(1S)-2-[6-oxo-5-(trifluoromethyl)-1,6-dihydropyridazin-4-yl]-2,3-dihydro-1H-isoindol-1-yl]methoxy]propanoyl)piperazin-1-yl]pyridine-3-carbonitrile], the tumor growth result in the assay with 4T1-luc2-1A4 cells and with CT26 cells was “significantly reduce tumor growth” in each case. Further, in assay [1], the “growth of NCI-H1373 lung cancer cells” value was “dose-dependent decrease in growth”. `COC[C@H](COc1cn[nH]c(=O)c1C(F)(F)F)OCCC(=O)N1CCN(c2ncc(Cl)cn2)CC1` [Example 560B, 5-[(2R)-2-[3-[4-(5-chloropyrimidin-2-yl)piperazin-1-yl]-3-oxopropoxy]-3-methoxypropoxy]-4-(trifluoromethyl)-2,3-dihydropyridazin-3-one] came in with an IC50 on TIPARP (PARP7) of 0.1 to 1 µM.

For `N#Cc1ccc(N2CCN(C(=O)c3ccnc(OC[C@@H]4c5ccccc5CN4c4cn[nH]c(=O)c4C(F)(F)F)n3)CC2)nc1` [Example 38A, 6-[4-[(2-[[(1S)-2-[6-Oxo-5-(trifluoromethyl)-1,6-dihydropyridazin-4-yl]-2,3-dihydro-1H-isoindol-1-yl]methoxy]pyrimidin-4-yl)carbonyl]piperazin-1-yl]pyridine-3-carbonitrile], the IC50 at TIPARP (PARP7) is < 0.1 µM.

(Values after patent publication US10870641B2, “Pyridazinones as PARP7 inhibitors” (Ribon Therapeutics Inc., priority 2018, dated 2020).)
